Data from EP4748841A1, “BICYCLO[5,6] IMIDAZOLE PYRIMIDONE DERIVATIVE AND PREPARATION METHOD THEREFOR AND USE THEREOF” (Shujing Biopharma Co., Ltd, priority 2023, dated 2025).

Target: T1, Lp-PLA2 (Homo sapiens, UniProt Q13093)
T1 construct: from tissue; host or cells: pooled (mixed) human plasma
T1 sequence (Q13093 22-441): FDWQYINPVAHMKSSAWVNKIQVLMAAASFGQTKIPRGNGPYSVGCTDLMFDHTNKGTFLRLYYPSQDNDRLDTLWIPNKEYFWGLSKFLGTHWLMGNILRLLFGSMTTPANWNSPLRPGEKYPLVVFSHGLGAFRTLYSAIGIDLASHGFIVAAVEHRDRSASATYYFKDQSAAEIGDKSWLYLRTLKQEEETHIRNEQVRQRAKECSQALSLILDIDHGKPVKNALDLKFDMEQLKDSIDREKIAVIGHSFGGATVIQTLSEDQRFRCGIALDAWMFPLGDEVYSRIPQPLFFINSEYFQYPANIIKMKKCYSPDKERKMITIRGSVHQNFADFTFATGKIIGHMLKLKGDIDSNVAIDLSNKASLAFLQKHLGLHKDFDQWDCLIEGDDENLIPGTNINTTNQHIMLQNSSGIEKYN
Assay: Inhibitory activity against Lp-PLA2 in human plasma (Thio-PAF assay)
Assay type: biochemical
Details: 2-thio-PAF substrate, 30 min pre-incubation
Excerpt: The literature reports that 2-Thio-PAF, commercially available from Cayman Chemical, is a substrate for PAF hydrolase (PAF-AH). After its cleavage by PAF-AH, the free thiol released at the sn-2 position can react with 7-diethylamino-3-(4'-maleimidophenyl)-4-methylcoumarin (CPM), resulting in increased fluorescence. Thus, Lp-PLA2 inhibitors can prevent this cleavage, and no increase in fluorescence is observed. In this experiment, the human plasma assay employed the same thioester analog of PAF as described in the recombinant human Lp-PLA2 assay described above.
• (1) The Thio-PAF assay was performed as a quenched 75 µL assay. A compound source plate was prepared by preparing 1:4 (v/v) serial diluents of the compounds in pure DMSO in a 96-well microplate. • (2) 1 µL of each test compound from the compound source plate was transferred into a 96-well microplate containing 40 µL of pre-thawed mixed human plasma by a Rainin multichannel pipette, and the plasma was thawed at room temperature and centrifuged at 2000 rpm for 10 min. The plate was shaken on a microplate shaker for 2 min for uniform mixing. • (3) After 30 min of pre-incubation at room temperature, 10 µL of a substrate solution was added sequentially to the 96-well microplate described above by a Rainin multichannel pipette. The substrate solution contained 2.5 mM 2-thio-PAF (from an ethanol mother liquor), 32 µM CPM (from a DMSO mother liquor), and 3.2 mM N-ethylmaleimide (freshly prepared in DMSO for each experiment) in assay buffer (pH 7.4) consisting of 50 mM HEPES, 150 mM NaCl, and 1 mM CHAPS. After the addition was completed, the plate was immediately shaken for 2 min, and the reaction time for the substrate was 4 min in total. After the reaction was completed, the reaction was quenched with 25 µL of an aqueous solution of 5% trifluoroacetic acid. The plate was centrifuged at 1000 rpm for 1 min. • (4) The FLINT signal (FLINT380/480) was read using a microplate reader. • (5) IC50 data, curve fitting, and QC analyses were performed using GraphPad Prism 8.0 and Excel.

IC50	Compound
4.3 nM	O=c1nc(OCc2cc(F)c(Oc3ccc(C(F)(F)F)nc3)c(F)c2)cc2n1CC1CCN21 (stereo not shown) [Example 52]
2090 nM	O=c1nc(OCc2ccc(Oc3ccccc3)cc2)cc2n1CC1CCN21 (stereo not shown) [Example 12, 3-((4-Phenoxybenzyl)oxy)-6,7,7a,8-tetrahydro-1H-azeto[1',2':3,4]imidazo[1,2-c]pyrimidin-1-one]
203 nM	Cn1cc(Oc2c(F)cc(COc3cc4n(c(=O)n3)CC3CCN43)cc2F)cn1 (stereo not shown) [Example 45]
30.3 nM	O=c1nc(OCc2ccc(F)c(F)c2)cc2n1CC1CCN21 (stereo not shown) [Example 54, 3-((3,4-Difluorobenzyl)oxy)-6,7,7a,8-tetrahydro-1H-azeto[1',2':3,4]imidazo[1,2-c]pyrimidin-1-one]
200 nM	N#Cc1cc(COc2cc3n(c(=O)n2)CC2CCN32)ccc1Oc1ccc(C(F)(F)F)cn1 (stereo not shown) [Example 21, 5-(((1-Oxo-6,7,7a,8-tetrahydro-1H-azeto[1',2':3,4]imidazo[1,2-c]pyrimidin-3-yl)oxy)methyl)-2-((5-(trifluoromethyl)pyridin-2-yl)oxy)benzonitrile]
25.6 nM	Cc1ncc(Oc2c(F)cc(COc3cc4n(c(=O)n3)CC3CCN43)cc2F)cn1 (stereo not shown) [Example 44]
15.9 nM	Cc1ccc(Oc2c(F)cc(COc3cc4n(c(=O)n3)C[C@H]3CCN43)cc2F)cn1 [Example 36-R]
2430 nM	Cc1ccc(COc2cc3n(c(=O)n2)CC2CCN32)cc1 (stereo not shown) [Example 8, 3-((4-Methylbenzyl)oxy)-6,7,7a,8-tetrahydro-1H-azeto[1',2':3,4]imidazo[1,2-c]pyrimidin-1-one]
107 nM	N#Cc1cc(Oc2ccc(COc3cc4n(c(=O)n3)CC3CCN43)cc2F)ccc1Cl (stereo not shown) [Example 53, 2-Chloro-5-(2-fluoro-4-(((1-oxo-6,7,7a,8-tetrahydro-1H-azeto[1',2':3,4]imidazo[1,2-c]pyrimidin-3-yl)oxy)methyl)phenoxy)benzonitrile]
892 nM	N#Cc1ccc(COc2cc3n(c(=O)n2)CC2CCN32)cc1 (stereo not shown) [Example 28, 3-((4-Cyanobenzyl)oxy)-6,7,7a,8-tetrahydro-1H-azeto[1',2':3,4]imidazo[1,2-c]pyrimidin-1-one]
21.2 nM	O=c1nc(OCc2ccc(Oc3cnc(C(F)(F)F)nc3)c(F)c2)cc2n1CC1CCN21 (stereo not shown) [Example 51]
12.7 nM	O=c1nc(OCc2ccc(Oc3ccc(F)c(F)c3)c(F)c2)cc2n1CC1CCN21 (stereo not shown) [Example 24, 3-((4-(3,4-Difluorophenoxy)-3-fluorobenzyl)oxy)-6,7,7a,8-tetrahydro-1H-azeto[1',2':3,4]imidazo[1,2-c]pyrimidin-1-one]
4.3 nM	O=c1nc(OCc2ccc(Oc3ccnc(C(F)(F)F)c3)c(F)c2)cc2n1CC1CCN21 (stereo not shown) [Example 23]
35.8 nM	Cc1ccc(Oc2c(F)cc(COc3cc4n(c(=O)n3)CC3CCN43)cc2F)cn1 (stereo not shown) [Example 36]
2740 nM	O=c1nc(OCc2ccc(Oc3ccccc3)nc2)cc2n1CC1CCN21 (stereo not shown) [Example 16, 3-((6-Phenoxypyridin-3-yl)methoxy)-6,7,7a,8-tetrahydro-1H-azeto[1',2':3,4]imidazo[1,2-c]pyrimidin-1-one]
3.9 nM	O=c1nc(OCc2ccc(Oc3ccc(C(F)(F)F)nc3)c(F)c2)cc2n1CC1CCN21 (stereo not shown) [Example 1]
4.6 nM	N#Cc1cc(COc2cc3n(c(=O)n2)CC2CCN32)ccc1Oc1cccc(C(F)(F)F)c1 (stereo not shown) [Example 22, 5-(((1-Oxo-6,7,7a,8-tetrahydro-1H-azeto[1',2':3,4]imidazo[1,2-c]pyrimidin-3-yl)oxy)methyl)-2-(3-(trifluoromethyl)phenoxy)benzonitrile]
292 nM	O=c1nc(OCc2ccc(Oc3ccc(F)c(C(F)(F)F)c3)nc2)cc2n1CC1CCN21 (stereo not shown) [Example 41, 3-((6-(4-Fluoro-3-(trifluoromethyl)phenoxy)pyridin-3-yl)methoxy)-6,7,7a,8-tetrahydro-1H-azeto[1',2':3,4]imidazo[1,2-c]pyrimidin-1-one]
52.3 nM	O=c1nc(OCc2cc(F)c(Oc3ccnc(C(F)(F)F)c3)c(F)c2)cc2n1C[C@@H]1CCN21 [Example 34-S]
68.7 nM	O=c1nc(OCc2ccc(F)cc2)cc2n1CC1CCN21 (stereo not shown) [Example 7, 3-((4-Fluorobenzyl)oxy)-6,7,7a,8-tetrahydro-1H-azeto[1',2':3,4]imidazo[1,2-c]pyrimidin-1-one]
3.9 nM	N#Cc1cc(COc2cc3n(c(=O)n2)CC2CCN32)ccc1Oc1ccc(Cl)c(C(F)(F)F)c1 (stereo not shown) [Example 39, 2-(4-Chloro-3-(trifluoromethyl)phenoxy)-5-(((1-oxo-6,7,7a,8-tetrahydro-1H-azeto[1',2':3,4]imidazo[1,2-c]pyrimidin-3-yl)oxy)methyl)benzonitrile]
12.6 nM	O=c1nc(OCc2ccc(Oc3ccc(Cl)c(C(F)(F)F)c3)cc2)cc2n1CC1CCN21 (stereo not shown) [Example 50, 3-((4-(4-Chloro-3-(trifluoromethyl)phenoxy)benzyl)oxy)-6,7,7a,8-tetrahydro-1H-azeto[1',2':3,4]imidazo[1,2-c]pyrimidin-1-one]
56.3 nM	O=c1nc(OCc2cnc(Oc3ccc(Cl)c(C(F)(F)F)c3)c(F)c2)cc2n1CC1CCN21 (stereo not shown) [Example 38, 3-((6-(4-Chloro-3-(trifluoromethyl)phenoxy)-5-fluoropyridin-3-yl)methoxy)-6,7,7a,8-tetrahydro-1H-azeto[1',2':3,4]imidazo[1,2-c]pyrimidin-1-one]
96.4 nM	Cc1ccc(Oc2c(F)cc(COc3cc4n(c(=O)n3)C[C@@H]3CCN43)cc2F)cn1 [Example 36-S]
5.2 nM	O=c1nc(OCc2cc(F)c(Oc3ccnc(C(F)(F)F)c3)c(F)c2)cc2n1CC1CCN21 (stereo not shown) [Example 34]
